Measurements as given in patent US20240287139A1, “A NOVEL COMPOUND ACTING AGAINST A SELECT GROUP OF BACTERIA” (priority 2021, published 2024).
Converted amounts (≈) assume the structure as drawn. Read-outs that look alike come from different tables or passages of the source. *1 amine or outer side, *2 acyl side, *3 side chain or, on linkers, in order; H or OH if unused. Where a SMILES comes first, the peptide text is derived from it. Bridges are numbered along the chain shown (N, C = ends). [ ]: non-standard residue; d: D form. The star is where a group is joined. ξ: configuration not given here. ξThr(3R)(O-yl) = C[C@@H](O[*:3])C(N[*:1])C(=O)[*:2]; βAsp = O=C(O)[C@H](CC(=O)[*:2])N[*:1]; His(π-Me) = Cn1cncc1C[C@H](N)C(=O)O; For = O=C*

Legend:
[1] = tested on: Mycobacterium tuberculosis H37Rv mc^26020 ΔbacA; experiment: microbe, parasite or virus in culture; type: cell-based
[2] = tested on: Salmonella enterica KLE 2601; experiment: microbe, parasite or virus in culture; type: cell-based; details: KLE2601; Salmonella enterica KLE 2601, anaerobic conditions, human stool isolate
[3] = tested on: Escherichia coli ATCC25922; experiment: microbe, parasite or virus in culture; type: cell-based
[4] = tested on: Bacteroides fragilis KLE 2244; experiment: microbe, parasite or virus in culture; type: cell-based; details: KLE2244; Bacteroides fragilis KLE 2244, anaerobic conditions, human stool isolate
[5] = tested on: Clostridium perfringens KLE 2523; experiment: microbe, parasite or virus in culture; type: cell-based; details: KLE2523
HEK293 [6] = experiment: cells; details: Homo sapiens, HEK293, read-out: Human cell line (IC50)
[7] = tested on: Streptococcus parasanguinis KLE 2509; experiment: microbe, parasite or virus in culture; type: cell-based; details: KLE2509; Streptococcus parasanguinis KLE 2509, anaerobic conditions, human stool isolate
physchem = details: water
FaDu [8] = experiment: cells; details: Homo sapiens, read-out: Human cell line (IC50)
[9] = tested on: Klebsiella pneumoniae ATCC 700603; experiment: microbe, parasite or virus in culture; type: cell-based; details: ATCC700603
[10] = tested on: commensal bacteria including Lactobacillus sp. and Bacteroides sp.; type: cell-based
E. coli ATCC 25922 = experiment: Septicemia model, survival; type: in vivo, mice; details: 1 h after infection
Experimental: The inventors next tested the compound of Formula IV in a simple model of septicemia infection with E. coli to evaluate its potential for activity in vivo. […] Mice were infected with E. coli ATCC25922 intraperitoneally for 1 hour followed by intraperitoneal administration of the compound of Formula IV.
Animal study was performed at Northeastern University, approved by Northeastern IACUC, and was performed according to institutional animal care and policies. Experiments were not randomized nor blinded, as it was not deemed necessary. Female CD-1 mice (20-25 g, experimentally naive, 6 weeks old) from Charles River were used for all studies. The compound of Formula IV was tested in a septicemia model against E. coli ATCC 25922. Mice were infected with 0.5 ml of E. coli ATCC 25922 suspension in BHI with 5% mucin (1×10^6 to 5×10^6) via intraperitoneal injection. This dose achieves >83% mortality within 24 h after infection. At 1 h after infection, mice were treated by the compound of Formula IV from 10 mg kg^−1 to 100 mg kg^−1 by intraperitoneal injection. Infection control mice were treated with 50 mg kg^−1 gentamicin as positive control. Survival was monitored for 120 h.

[11] = tested on: Bacteroides stercoris KLE 2537; experiment: microbe, parasite or virus in culture; type: cell-based; details: KLE2537; Bacteroides stercoris KLE 2537, anaerobic conditions, human stool isolate
HepG2 [12] = experiment: cells; details: Homo sapiens, HepG2, read-out: Human cell line (IC50)
[13] = tested on: Veillonella ratti KLE 2365; experiment: microbe, parasite or virus in culture; type: cell-based; details: KLE2365; Veillonella ratti KLE 2365, anaerobic conditions, human stool isolate
Escherichia coli MG1655 = experiment: microbe, parasite or virus in culture; type: cell-based
[14] = tested on: Lactobacillus paracasei KLE 2504; experiment: microbe, parasite or virus in culture; type: cell-based; details: Lacticaseibacillus paracasei, KLE2504; Lactobacillus paracasei KLE 2504, anaerobic conditions, human stool isolate
HepG2 [15] = tested on: HepG2
[16] = type: in vivo, mouse; details: intraperitoneally at 100 mg kg^−1, observed for 24 hours
[17] = tested on: Mycobacterium tuberculosis H37Rv mc^26020; experiment: microbe, parasite or virus in culture; type: cell-based
E. coli WO153 = experiment: Macromolecule incorporation assay; type: cell-based; details: 8×MIC
Experimental: Incorporation of ^14C-thymidine (DNA), ^14C-uridine (RNA), ^14C-L-amino acid mixture (protein), ^14C-acetic acid (fatty acid) and ^14C-acetyl-glucosamine (peptidoglycan) was determined in cells treated with 8×MIC of the compound of Formula IV (grey bars). Ciprofloxacin (8×MIC), rifampicin (8×MIC), chloramphenicol (8×MIC), triclosan (8×MIC) and fosfomycin (8×MIC) were used as controls (white bars). There were n=3 biologically independent samples.
Macromolecular synthesis assay against DNA, RNA, protein and fatty acid were analyzed by ImQuest BioSciences Inc. (MD, USA) with E. coli WO153 cells.

[18] = tested on: Mycobacterium tuberculosis H37Rv mc^26020 mCherry; experiment: microbe, parasite or virus in culture; type: cell-based
Escherichia coli BW25113 = experiment: microbe, parasite or virus in culture; type: cell-based
M. tuberculosis = experiment: Microscopy, cell elongation; type: cell-based; details: 10×MIC, 48 hours of treatment
MtbGyrase [19] = target: T1, MtbGyrase (Mycobacterium tuberculosis, UniProt P9WG45+P9WG47); experiment: biochemical; design: species or system M. tuberculosis; details: 20 nM MtbGyrase
T1 sequence (P9WG45 whole entry, looked up): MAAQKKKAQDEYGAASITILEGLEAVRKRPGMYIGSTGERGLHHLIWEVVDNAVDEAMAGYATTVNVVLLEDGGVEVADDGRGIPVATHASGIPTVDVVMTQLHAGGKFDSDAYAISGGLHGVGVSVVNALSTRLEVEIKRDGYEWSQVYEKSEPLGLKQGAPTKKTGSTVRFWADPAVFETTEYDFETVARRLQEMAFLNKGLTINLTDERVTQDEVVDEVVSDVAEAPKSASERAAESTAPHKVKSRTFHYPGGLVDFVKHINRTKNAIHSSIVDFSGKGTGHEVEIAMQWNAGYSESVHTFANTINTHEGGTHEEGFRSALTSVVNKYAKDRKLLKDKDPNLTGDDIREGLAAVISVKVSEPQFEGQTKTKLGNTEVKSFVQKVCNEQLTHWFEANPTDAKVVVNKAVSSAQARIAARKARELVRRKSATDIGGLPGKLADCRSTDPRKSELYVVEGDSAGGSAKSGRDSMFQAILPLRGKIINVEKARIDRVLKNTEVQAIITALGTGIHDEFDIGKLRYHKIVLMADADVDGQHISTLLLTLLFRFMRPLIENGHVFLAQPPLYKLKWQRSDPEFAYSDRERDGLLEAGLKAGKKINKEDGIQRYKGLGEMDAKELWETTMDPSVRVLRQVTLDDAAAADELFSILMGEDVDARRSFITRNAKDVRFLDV
T1 sequence (P9WG47 whole entry, looked up): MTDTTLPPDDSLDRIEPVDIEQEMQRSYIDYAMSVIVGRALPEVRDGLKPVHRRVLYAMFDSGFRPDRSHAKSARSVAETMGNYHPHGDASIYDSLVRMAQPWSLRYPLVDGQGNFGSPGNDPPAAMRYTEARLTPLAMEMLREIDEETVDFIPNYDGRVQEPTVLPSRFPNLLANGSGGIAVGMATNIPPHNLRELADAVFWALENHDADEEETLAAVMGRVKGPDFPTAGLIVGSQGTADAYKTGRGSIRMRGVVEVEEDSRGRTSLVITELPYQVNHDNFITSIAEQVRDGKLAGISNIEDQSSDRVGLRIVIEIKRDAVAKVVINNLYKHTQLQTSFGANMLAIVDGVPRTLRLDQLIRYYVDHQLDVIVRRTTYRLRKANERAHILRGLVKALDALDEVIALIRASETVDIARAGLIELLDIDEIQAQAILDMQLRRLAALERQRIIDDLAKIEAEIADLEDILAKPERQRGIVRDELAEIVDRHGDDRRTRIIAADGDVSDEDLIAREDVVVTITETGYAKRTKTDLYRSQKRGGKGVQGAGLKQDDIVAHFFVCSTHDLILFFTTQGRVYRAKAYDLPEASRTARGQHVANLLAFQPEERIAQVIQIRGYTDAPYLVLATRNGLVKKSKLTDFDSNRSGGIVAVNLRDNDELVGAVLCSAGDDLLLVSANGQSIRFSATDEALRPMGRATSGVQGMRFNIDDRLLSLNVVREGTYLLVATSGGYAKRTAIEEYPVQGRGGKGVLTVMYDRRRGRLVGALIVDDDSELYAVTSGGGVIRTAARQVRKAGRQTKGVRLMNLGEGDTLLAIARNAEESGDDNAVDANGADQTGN

[20] = tested on: Mycobacterium smegmatis mc^2155; experiment: microbe, parasite or virus in culture; type: cell-based; details: Mycolicibacterium smegmatis
[21] = target: E. coli topoisomerase IV (topo IV) (Escherichia coli, UniProt P0AFI2+P20083); type: biochemical; details: 100 μM compound; strong cleavage visible at 5 nM enzyme
E. coli topoisomerase IV (topo IV), sequence (P20083 whole entry): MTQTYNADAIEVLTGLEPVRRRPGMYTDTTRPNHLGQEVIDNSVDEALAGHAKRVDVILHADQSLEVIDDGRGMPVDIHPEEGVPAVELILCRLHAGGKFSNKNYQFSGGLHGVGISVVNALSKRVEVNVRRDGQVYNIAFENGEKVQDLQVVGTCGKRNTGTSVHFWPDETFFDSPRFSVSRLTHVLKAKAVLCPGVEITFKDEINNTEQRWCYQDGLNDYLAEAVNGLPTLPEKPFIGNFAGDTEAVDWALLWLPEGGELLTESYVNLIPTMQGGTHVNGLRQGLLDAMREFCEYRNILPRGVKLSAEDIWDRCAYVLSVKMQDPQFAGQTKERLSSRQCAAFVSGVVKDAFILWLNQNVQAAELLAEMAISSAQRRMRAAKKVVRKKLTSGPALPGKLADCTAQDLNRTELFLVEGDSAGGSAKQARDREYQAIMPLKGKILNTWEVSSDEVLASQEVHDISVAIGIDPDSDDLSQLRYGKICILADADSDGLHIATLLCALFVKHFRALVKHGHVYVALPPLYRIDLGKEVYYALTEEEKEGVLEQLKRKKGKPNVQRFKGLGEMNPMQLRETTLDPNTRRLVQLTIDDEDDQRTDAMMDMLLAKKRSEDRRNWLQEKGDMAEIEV
E. coli topoisomerase IV (topo IV), sequence (P0AFI2 whole entry): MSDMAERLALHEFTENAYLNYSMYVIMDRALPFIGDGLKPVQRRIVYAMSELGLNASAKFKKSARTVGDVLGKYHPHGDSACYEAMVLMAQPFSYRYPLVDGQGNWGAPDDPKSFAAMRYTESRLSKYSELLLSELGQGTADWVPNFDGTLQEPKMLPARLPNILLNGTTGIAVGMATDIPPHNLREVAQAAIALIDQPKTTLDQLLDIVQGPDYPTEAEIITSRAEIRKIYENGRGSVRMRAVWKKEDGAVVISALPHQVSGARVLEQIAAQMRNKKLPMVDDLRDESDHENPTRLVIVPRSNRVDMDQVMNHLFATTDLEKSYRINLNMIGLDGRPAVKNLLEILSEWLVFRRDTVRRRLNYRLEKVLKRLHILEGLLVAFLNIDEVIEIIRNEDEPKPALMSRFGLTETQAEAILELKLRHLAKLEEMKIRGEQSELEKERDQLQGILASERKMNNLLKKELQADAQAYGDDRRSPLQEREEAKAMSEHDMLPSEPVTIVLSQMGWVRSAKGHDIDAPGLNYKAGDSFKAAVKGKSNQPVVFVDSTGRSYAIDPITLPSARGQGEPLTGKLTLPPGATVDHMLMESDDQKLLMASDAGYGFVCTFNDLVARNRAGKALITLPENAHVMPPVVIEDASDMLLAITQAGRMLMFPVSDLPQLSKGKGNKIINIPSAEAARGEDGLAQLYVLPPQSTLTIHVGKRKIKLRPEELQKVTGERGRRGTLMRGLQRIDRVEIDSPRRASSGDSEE

[22] = tested on: Staphylococcus aureus HG003; experiment: microbe, parasite or virus in culture; type: cell-based
MtbGyrase [23] = target: T1, MtbGyrase; type: biochemical, M. tuberculosis; details: 100 μM compound, 0-20 nM enzyme
Escherichia coli WO153 = experiment: microbe, parasite or virus in culture; type: cell-based
Escherichia coli ΔtolC = experiment: microbe, parasite or virus in culture; type: cell-based
[24] = tested on: Pseudomonas aeruginosa PA01; experiment: microbe, parasite or virus in culture; type: cell-based
[25] = tested on: Acinetobacter baumannii ATCC 17978; experiment: microbe, parasite or virus in culture; type: cell-based; details: ATCC17978
[26] = tested on: Mycobacterium abscessus ATCC 19977; experiment: microbe, parasite or virus in culture; type: cell-based; details: Mycobacteroides abscessus, ATCC19977
wild type E. coli = experiment: microbe, parasite or virus in culture; type: cell-based; details: Escherichia coli
[27] = tested on: Lactobacillus reuteri LTH5448; experiment: microbe, parasite or virus in culture; type: cell-based; details: Limosilactobacillus reuteri; Lactobacillus reuteri LTH5448, anaerobic conditions
E. coli gyrase = E. coli gyrase (Escherichia coli, UniProt P0AES4+P0AES6); type: biochemical; details: 100 μM compound
E. coli gyrase, sequence (P0AES4 whole entry, one chain of several): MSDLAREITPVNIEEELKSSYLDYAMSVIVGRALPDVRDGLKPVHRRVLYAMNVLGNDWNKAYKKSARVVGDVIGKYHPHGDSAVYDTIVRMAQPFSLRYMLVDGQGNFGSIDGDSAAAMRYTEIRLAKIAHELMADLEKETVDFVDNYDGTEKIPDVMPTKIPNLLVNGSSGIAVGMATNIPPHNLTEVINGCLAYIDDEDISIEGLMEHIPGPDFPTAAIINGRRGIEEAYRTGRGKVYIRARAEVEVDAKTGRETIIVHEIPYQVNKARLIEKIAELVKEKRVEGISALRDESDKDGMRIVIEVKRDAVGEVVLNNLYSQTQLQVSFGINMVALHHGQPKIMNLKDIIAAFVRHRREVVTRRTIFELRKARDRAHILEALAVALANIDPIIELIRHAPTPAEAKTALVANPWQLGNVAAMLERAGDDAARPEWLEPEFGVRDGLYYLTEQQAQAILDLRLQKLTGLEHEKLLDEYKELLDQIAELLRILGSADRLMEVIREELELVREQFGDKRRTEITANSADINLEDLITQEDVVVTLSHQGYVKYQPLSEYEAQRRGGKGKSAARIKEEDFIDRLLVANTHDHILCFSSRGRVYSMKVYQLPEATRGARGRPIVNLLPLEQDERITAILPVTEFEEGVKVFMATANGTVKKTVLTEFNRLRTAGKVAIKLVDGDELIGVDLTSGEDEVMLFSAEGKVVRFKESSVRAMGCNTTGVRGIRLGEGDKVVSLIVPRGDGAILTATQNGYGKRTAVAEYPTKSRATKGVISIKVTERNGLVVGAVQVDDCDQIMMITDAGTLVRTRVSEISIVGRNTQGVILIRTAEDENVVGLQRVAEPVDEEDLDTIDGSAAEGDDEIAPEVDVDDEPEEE

[28] = tested on: Enterococcus faecalis KLE 2341; experiment: microbe, parasite or virus in culture; type: cell-based; details: KLE2341; Enterococcus faecalis KLE 2341, anaerobic conditions, human stool isolate
FaDu [29] = tested on: FaDu
MtbGyrase [30] = target: T1, MtbGyrase; experiment: DNA-stimulated ATPase assay (NADH-coupled); details: 250 nM gyrase, 100 μM drug
HEK293 [31] = tested on: HEK293
[32] = tested on: M. tuberculosis H37Rv mc^26020; experiment: Time-dependent killing; type: cell-based; details: 10×MIC
Escherichia coli ΔSbmA = experiment: microbe, parasite or virus in culture; type: cell-based; details: Keio collection mutant
[33] = Mycobacterium tuberculosis, M. tuberculosis H37Rv mc^26020, read-out: MIC

In the case of `C[C@H]1OC(=O)C[C@@H](C(=O)O)NC(=O)[C@H](CO)NC(=O)[C@@H](CCCNC(=N)N)NC(=O)CNC(=O)[C@H](Cc2ccccc2)NC(=O)[C@@H](CO)NC(=O)C[C@@H](C(=O)O)NC(=O)[C@H](Cc2cncn2C)NC(=O)C1NC(=O)[C@@H](CCCNC(=N)N)NC(=O)[C@@H](NC(=O)[C@H](Cc1c[nH]c2ccccc12)NC=O)[C@@H](C)O` (stereo partly drawn) [compound of Formula IV] (For-WT[dR][ξThr(3R)(O-yl)][His(π-Me)][βAsp][dS]FG[dR]SD-OH; ester 4-12), the MIC [1] is reported as 16 µg/mL, the MIC [2] is reported as 128 µg/mL and the MIC [3] is reported as 8 µg/mL. The MIC [4] was 64 µg/mL, the MIC [5] was 64 µg/mL and the IC50 (HEK293 [6]) was > 128 µg/mL. The MIC [7] was > 128 µg/mL, the solubility (physchem) was > 40 mg/mL and the IC50 (FaDu [8]) was > 128 µg/mL. The MIC [9] was 32 µg/mL, the “activity against commensal bacteria” value [10] was “no activity” and the “efficacy, septicemia infection with E. coli ATCC25922” value (E. coli ATCC 25922; 100 mg kg^−1 dose intraperitoneal) was “completely protected”. For the same compound, the “efficacy, septicemia infection with E. coli ATCC25922” value (E. coli ATCC 25922; single dose of 25 mg kg^−1 intraperitoneal) was “significant efficacy”, the MIC [11] was > 128 µg/mL and the IC50 (HepG2 [12]) was > 128 µg/mL. For the same compound, the MIC [13] was > 128 µg/mL, the MIC (Escherichia coli MG1655) was 16 µg/mL and the MIC [14] was > 128 µg/mL. For the same compound, the “toxicity against human cell line” value (HepG2 [15]) was “no toxicity”, the “toxicity in a mouse, survival” value [16] was “no indications of toxicity” and the MIC ([17]; Mycobacterium tuberculosis H37Rv mc^26020) was 0.25 µg/mL. For the same compound, the MIC [17, 33] was 0.25 µg/mL, the “effect on DNA synthesis (^14C-thymidine incorporation)” value (E. coli WO153) was “inhibits DNA synthesis” and the “effect on RNA, protein and fatty acid synthesis” value (E. coli WO153) was “less of an effect”. The MIC [18] was 0.0625 µg/mL, the MIC (Escherichia coli BW25113) was 16 µg/mL and the “cell length compared to nontreated cells” value (M. tuberculosis) was “approximately 2 times”. The “DNA cleavage in the absence of ATP” value (MtbGyrase [19]; absence of ATP) was “little to no cleavage”, the IC50 (MtbGyrase [19]; in the presence of ATP) was ~1 µM and the MIC [20] was 8 µg/mL. The “DNA cleavage by E. coli topo IV” value [21] was “stimulated DNA cleavage”, the MIC [22] was 128 µg/mL and the “DNA cleavage by MtbGyrase” value (MtbGyrase [23]) was “induced DNA cleavage”. The “supercoiling activity of MtbGyrase” value (MtbGyrase [23]) was “inhibited the supercoiling activity”, the MIC (Escherichia coli WO153; Escherichia coli WO153) was 0.0625 µg/mL and the MIC (Escherichia coli WO153; Escherichia coli, E. coli WO153, compromised penetration barrier, read-out: MIC) was 0.0625 µg/mL. For the same compound, the “MIC of tolC deletion mutant, times higher as compared to E. coli WO153” value (Escherichia coli ΔtolC) was 4 times, the “MIC of tolC deletion mutant, times lower than in the wild type” value (Escherichia coli ΔtolC) was 64 times and the MIC (Escherichia coli ΔtolC; Escherichia coli ΔtolC, Keio collection mutant) was 0.25 µg/mL. The MIC (Escherichia coli ΔtolC; Escherichia coli, E. coli tolC deletion mutant, read-out: MIC) was 0.25 µg/mL, the MIC [24] was > 128 µg/mL and the MIC [25] was 128 µg/mL. The MIC [26] was 16 µg/mL, the MIC (wild type E. coli) was 16 µg/mL and the MIC [27] was > 128 µg/mL. For the same compound, the “inhibition of DNA supercoiling by gyrase compared with supercoil relaxation by topo IV” value (E. coli gyrase) was “more potent inhibitor of DNA supercoiling by gyrase”, the “DNA cleavage by E. coli gyrase” value (E. coli gyrase; strong cleavage visible at 5 nM enzyme) was “stimulated DNA cleavage” and the MIC [28] was > 128 µg/mL. For the same compound, the “toxicity against human cell line” value (FaDu [29]) was “no toxicity”, the “overall rate (vmax) of ATPase activity” value (MtbGyrase [30]) was 45±7.2 ATP·s^−1 per enzyme and the “toxicity against human cell line” value (HEK293 [31]) was “no toxicity”. The “killing of exponentially growing M. tuberculosis” value ([32]; exponential cells) was “highly bactericidal”, the “killing of stationary M. tuberculosis” value ([32]; stationary cells) was “highly bactericidal” and the MIC (Escherichia coli ΔSbmA) was 128 µg/mL.
With `COc1c(N2C[C@@H]3CCCN[C@@H]3C2)c(F)cc2c(=O)c(C(=O)O)cn(C3CC3)c12` [Moxifloxacin, reference compound] the MIC [17, 33] was 0.125 µg/mL (≈ 0.311 µM).
